What was measured:
[1] = target: T1, CaCC (Ca^2+-activated chloride channels) in NCL-SG3-hsYFP cells (Homo sapiens, UniProt Q5XXA6); assay: hsYFP fluorescence quenching (Cl^− efflux/I^− influx) assay in NCL-SG3-hsYFP CaCC activity sensor cells; type: cell-based; conditions: for Effect on hsYFP quenching by Cl^− efflux/I^− influx mediated by ATP: 25 μM; for Dose dependence of inhibition of CaCC-mediated Cl^− efflux: increasing inhibitor concentrations, stimulation with 330 μM ATP
T1 sequence (Q5XXA6 1-986): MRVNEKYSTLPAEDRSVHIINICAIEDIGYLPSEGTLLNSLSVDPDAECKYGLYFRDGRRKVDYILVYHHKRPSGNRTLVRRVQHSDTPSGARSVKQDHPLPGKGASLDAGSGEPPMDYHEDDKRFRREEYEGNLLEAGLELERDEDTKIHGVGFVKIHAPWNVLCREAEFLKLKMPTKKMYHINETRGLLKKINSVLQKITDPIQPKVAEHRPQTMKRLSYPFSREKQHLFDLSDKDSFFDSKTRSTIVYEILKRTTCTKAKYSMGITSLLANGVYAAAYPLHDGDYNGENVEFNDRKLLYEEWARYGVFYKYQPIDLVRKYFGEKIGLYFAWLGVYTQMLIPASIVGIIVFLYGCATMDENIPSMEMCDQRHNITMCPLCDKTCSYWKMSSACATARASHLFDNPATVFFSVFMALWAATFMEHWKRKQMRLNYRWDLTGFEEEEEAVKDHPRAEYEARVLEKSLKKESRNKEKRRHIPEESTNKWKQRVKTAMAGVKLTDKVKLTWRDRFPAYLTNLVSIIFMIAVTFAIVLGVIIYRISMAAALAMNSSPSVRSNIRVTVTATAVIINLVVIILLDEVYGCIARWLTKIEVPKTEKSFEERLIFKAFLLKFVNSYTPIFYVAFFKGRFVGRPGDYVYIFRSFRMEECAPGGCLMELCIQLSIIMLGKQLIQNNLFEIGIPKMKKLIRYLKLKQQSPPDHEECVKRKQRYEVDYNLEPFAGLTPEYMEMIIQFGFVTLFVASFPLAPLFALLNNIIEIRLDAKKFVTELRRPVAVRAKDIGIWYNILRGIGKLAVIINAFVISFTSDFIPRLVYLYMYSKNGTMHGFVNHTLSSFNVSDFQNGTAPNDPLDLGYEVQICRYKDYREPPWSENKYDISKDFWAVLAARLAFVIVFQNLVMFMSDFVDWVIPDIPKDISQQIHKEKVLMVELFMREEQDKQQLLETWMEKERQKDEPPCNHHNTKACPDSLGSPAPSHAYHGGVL
Protocol: The halide inside the cell functionally interacts with the halide-sensitive cytoplasmic indicator protein, which leads to a quenching of the signal provided by the halide-sensitive cytoplasmic indicator protein. The more halide (such as e.g. iodide) flows into the cell, the weaker the signal emitted by the halide-sensitive cytoplasmic indicator protein becomes. This alteration of the signal emitted by the halide-sensitive cytoplasmic indicator protein is determined in a third step of the method of the invention. Due to the fact that the influx of halide into the cell is proportional to the efflux of chloride ions, the halide influx is used as a direct measure for chloride secretion. To determine the amount of chloride secretion, the fluorescence decrease is plotted against time (Δfluorescence/Δtime) and the initial slope of the resulting graph represents the iodide influx rate (sec^−1), which in turn is directly proportional to the chloride efflux rate, representing the amount of chloride secretion per time. In a fourth step, this amount of chloride secretion determined in the presence of a test compound is compared to the amount of chloride secretion determined in the absence of a said compound.
Effect of CaCC inhibitors on sweat gland-specific Ca^2+-dependent […] and proportional I^− influx was determined using NCL-SG3-hsYFP cells. Quenching of intracellular hsYFP fluorescence was measured and plotted over time. Exemplary raw data (B) and fitted curves are shown (A). NCL-SG3-hsYFP cells were incubated with 50 μM tannic acid (TA), 25 μM niflumic acid (NFA), 25 μM 5-nitro-2-(3-phenylpropyl-amino) benzoic acid (NPPB), 100 μM epigallocatechin-3-gallate (EGCG) for 15 min and then stimulated with 330 μM ATP.
Sweat gland-specific Ca^2+-dependent Cl^− efflux and a proportional I^− influx was determined using NCL-SG3-hsYFP cells. Quenching of intracellular hsYFP fluorescence was measured and plotted over time. Exemplary fitted curves are shown. NCL-SG3-hsYFP cells were incubated with increasing concentrations of tannic acid (TA) and then stimulated with 330 μM ATP. […] NCL-SG3-hsYFP cells were incubated with increasing concentrations of CaCC inhibitors and quenching of intracellular hsYFP fluorescence was measured after stimulation with ATP. The rate of […] (sec^−1), which is proportional to Ca^2+-dependent […] was calculated from the initial slope of the measured hsYFP fluorescence (ΔYFP fluorescence/Δtime) and is a direct measure of CaCC activity. IC50 values were determined by plotting the percentage of residual CaCC activity against the individual inhibitor concentration.
NCL-SG3-hsYFP cells were routinely cultivated in Williams' Medium E supplemented with 9% Fetal Calf Serum, 3.5 mM Glutamine, 9 ng/μl Hydrocortisone, Insulin-Transferrin-Selenium-Supplement (PAA Laboratories) at 37° C. and 5% CO2. For microplate assays, 20,000 cells were seeded in 96-well black-walled, clear bottom microplates (Costar) and cultivated for 2 days until cells reached confluency. Cells were washed three times with 100 μl modified Krebs-Henseleit (KH) buffer (137 mM NaCl, 2.7 mM KCl, 1.2 mM MgSO4, 1.2 mM KH2PO4, 4.2 mM NaHCO3, 1.3 mM CaCl2, 10 mM HEPES, pH 7.4) and incubated with the test compound in 50 μl KH-buffer for 15 min at 37° C. and 5% CO2. Microplates were transferred into an automated fluorescence plate reader (FlexStation®, Molecular Devices) and cellular hsYFP fluorescence was continuously recorded every 3.5 sec until end of the experiment (excitation at 485 nm, emission at 535 nm, cutoff 515 nm).

[2] = tested on: CaCCs in human colonic epithelial cells; conditions: reference (44); cited from earlier work

Molecule	Effect on CaCC-mediated Cl^− efflux (hsYFP quenching) mediated by ATP ([1]; 100 μM, 15 min, then 330 μM ATP)	Inhibition of CaCCs / Cl^− currents [2]	Quenching of hsYFP fluorescence after addition of Ca^2+-elevating agent ([1]; 1 μM)	Effect on hsYFP quenching by Cl^− efflux/I^− influx mediated by ATP ([1]; 15 min, then 330 μM ATP)	Dose dependence of inhibition of CaCC-mediated Cl^− efflux [1]
epigallocatechin-3-gallate [EGCG]	no effect	effectively inhibits	–	–	–
C[C@H](CCC(=O)O)C[C@H](C)C[C@H](C)C(=O)/C=C(\O)[C@H](C)C[C@H](C)C/C=C/[C@@H](C)[C@@H](O)[C@@H](C)[C@@H](O)C[C@@H]1CC[C@@](C)([C@H]2CC[C@@](C)([C@@H](C)O)O2)O1 [ionomycin]	–	–	quick quenching of the hsYFP fluorescence followed by a slow recovery	–	–
O=C(O)c1cc([N+](=O)[O-])ccc1NCCCc1ccccc1 [NPPB, 5-nitro-2-(3-phenylpropyl-amino) benzoic acid]	–	–	–	significant reduction of hsYFP quenching	antagonized CaCC-mediated Cl^− efflux in a dose-dependent manner
O=C(O)c1cccnc1Nc1cccc(C(F)(F)F)c1 [NFA, niflumic acid]	–	–	–	significant reduction of hsYFP quenching	antagonized CaCC-mediated Cl^− efflux in a dose-dependent manner

Source: US9809853B2, “Calcium-activated chloride channel involved in human sweat formation” (BRAIN Biotechnology Research and Information Network AG, priority 2012, dated 2017)
